Usually IC50 stands for the concentration that inhibits the measured activity by half.

Where a name gives a salt, the structure may show the parent alone.

One test has as its system human A549 cells. Description: Inhibition test of PGE2 production using human A549 cells. In kind it is cell-based. The settings on record: IL-1β stimulated A549 cells, 24 h, PGE2 by HTRF, read-out: A549 cell inhibition of PGE2 production IC50. The protocol: 100 μL of RPMI medium (Sigma) comprising 10% FBS and human A549 cells was seeded in a 96-well plate to […] cells per well, and incubated overnight. The medium was then removed and washed with phosphate-buffered saline, and added to a DMSO solution of the test compound or RPMI medium comprising 3% FBS with DMSO to a final concentration of 0.1% DMSO. After incubation for 60 minutes, IL-1P (5 ng/well, BioLegend) was added to the solution. After incubation at 37° C. for 24 h, PGE2 in the medium was quantified using the HTRF kit (Cisbio International) and PGF2a was also quantified using the EIA kit (Cayman chemical). Solutions without the test compound were used as positive controls, and solutions without the test compound and IL-1β were used as negative controls. 100% activity was defined as production of PGE2 and PGF2a in the positive control minus those in the negative control. IC50 values were then determined using standard methods.
(In general: TR-FRET usually uses a lanthanide donor and a delayed reading to cut background.)

The next test concerns the target human mPGES-1 (Homo sapiens (Human), UniProt O14684). Description: mPGES-1 inhibitory activity test. In kind it is biochemical. The conditions noted are these: microsomes of CHO-K1 cells expressing human mPGES-1, PGH2 1 μM, PGE2 by HTRF; read-out: mPGES-1 inhibition (IC50 nM). The protocol: mPGES-1 microsomal specimens were prepared by transiently transfecting CHO-K1 cells (DS Pharma Biomedical Co. Ltd) with a plasmid encoding human mPGES-1 cDNA using FuGENE 6 Transfection Reagent (Promega). The prepared mPGES-1 microsome specimens were diluted in potassium phosphate buffer of pH 7.4 comprising 2.5 mM reduced glutathione (Sigma-Aldrich), DMSO solution of a test compound or DMSO was added to a final concentration of 1% of DMSO, and then incubated at 4° C. for 20 minutes. The enzymatic reaction was then initiated by adding a solution of PGH2 (Cayman chemical) substrate of a final concentration 1 μM and incubated at 4° C. for 60 seconds. The reaction was terminated by adding a solution of ferric chloride (STREM CHEMICALS) and citric acid (Wako Pure Chemical Industries) salt to a final concentration of 5 mg/mL and 250 mM, respectively. The formed PGE2 was quantified using the HTRF kit (Cisbio International). Solutions without the test compound were used as positive controls, and solutions without the test compound and microsomal specimens were used as negative controls. 100% activity was defined as production of PGE2 in the positive control minus that in the negative control. The percentage inhibition of production of PGE2 at final concentrations of 10 nM and 100 nM of the test compound was then calculated, or IC50 values were determined using standard methods.

Sequence of human mPGES-1 (O14684 whole entry): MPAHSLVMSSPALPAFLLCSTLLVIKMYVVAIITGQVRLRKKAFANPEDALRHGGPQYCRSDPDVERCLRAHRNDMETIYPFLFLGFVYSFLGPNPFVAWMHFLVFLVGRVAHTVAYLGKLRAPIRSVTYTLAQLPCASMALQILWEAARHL

On to `O=C(Nc1cccc2c1cnn2-c1ccc(C(F)(F)F)cc1)c1cc(CNC(=O)C2CC2)ccc1Cl` [Example 1, 2-Chloro-5-{[(cyclopropylcarbonyl)amino]methyl}-N-{1-[4-(trifluoromethyl)phenyl]-1H-indazol-4-yl}benzamide], for which the IC50 with human A549 cells came out at 4.5 nM; at human mPGES-1, 1.5 nM.
Regarding `O=C(Nc1cccc2c1cnn2-c1ccccc1)c1cc(CNC(=O)C2CC2)ccc1Cl` [Example 2, 2-Chloro-5-{[(cyclopropylcarbonyl)amino]methyl}-N-(1-phenyl-1H-indazol-4-yl)benzamide], the IC50 in the test on human A549 cells stood at 6.3 nM; on human mPGES-1 it was 0.2 nM.
For the compound `O=C(Nc1cccc2c1cnn2-c1cccc(C(F)(F)F)c1)c1cc(CNC(=O)C2CC2)ccc1Cl` [Example 3, 2-Chloro-5-{[(cyclopropylcarbonyl)amino]methyl}-N-{1-[3-(trifluoromethyl)phenyl]-1H-indazol-4-yl}benzamide], the figures for the IC50 with human A549 cells and on human mPGES-1 were 0.7 nM and 1.2 nM, respectively.
As for `O=C(Nc1cccc2c1cnn2-c1cccnc1)c1cc(CNC(=O)C2CC2)ccc1Cl` [Example 4, 2-Chloro-5-{[(cyclopropylcarbonyl)amino]methyl}-N-[1-(pyridin-3-yl)-1H-indazol-4-yl]benzamide hydrochloride], at human mPGES-1, the IC50 turned out to be 18.8 nM.
Take `O=C(Nc1cccc2c1cnn2-c1ccncc1)c1cc(CNC(=O)C2CC2)ccc1Cl` [Example 5, 2-Chloro-5-{[(cyclopropylcarbonyl)amino]methyl}-N-[1-(pyridin-4-yl)-1H-indazol-4-yl]benzamide hydrochloride]: the concentration for half-maximal inhibition (IC50) in the test on human A549 cells came to 688 nM; at human mPGES-1, 9.6 nM.
Consider `Cc1ccc(-n2ncc3c(NC(=O)c4cc(CNC(=O)C5CC5)ccc4Cl)cccc32)cc1` [Example 6, 2-Chloro-5-{[(cyclopropylcarbonyl)amino]methyl}-N-[1-(4-methylphenyl)-1H-indazol-4-yl]benzamide], for which the values for the IC50 in the test with human A549 cells and on human mPGES-1 were 0.6 nM and 1.3 nM, respectively.
The corresponding values for `Cc1cccc(-n2ncc3c(NC(=O)c4cc(CNC(=O)C5CC5)ccc4Cl)cccc32)c1` [Example 7, 2-Chloro-5-{[(cyclopropylcarbonyl)amino]methyl}-N-[1-(3-methylphenyl)-1H-indazol-4-yl]benzamide] are 1.6 nM and 1.8 nM.
For `O=C(Nc1cccc2c1cnn2-c1ccccn1)c1cc(CNC(=O)C2CC2)ccc1Cl` [Example 8, 2-Chloro-5-{[(cyclopropylcarbonyl)amino]methyl}-N-[1-(pyridin-2-yl)-1H-indazol-4-yl]benzamide], the results for the IC50 with human A549 cells and on human mPGES-1 were 11.3 nM and 3.9 nM, respectively.
In the same order, the values of `Cc1ccccc1-n1ncc2c(NC(=O)c3cc(CNC(=O)C4CC4)ccc3Cl)cccc21` [Example 9, 2-Chloro-5-{[(cyclopropylcarbonyl)amino]methyl}-N-[1-(2-methylphenyl)-1H-indazol-4-yl]benzamide] are 4.1 nM and 2.2 nM.
For the compound `Cc1ccc(-n2ncc3c(NC(=O)c4cc(CNC(=O)C5CC5)ccc4Cl)cccc32)cn1` [Example 10, 2-Chloro-5-{[(cvclopropylcarbonyl)amino]methyl}-N-[1-(6-methylpyridin-3-yl)-1H-indazol-4-yl]benzamide hydrochloride], the figures for the IC50 in the test on human A549 cells and on human mPGES-1 were 31.2 nM and 10 nM, respectively.
Regarding `O=C(Nc1cccc2c1cnn2-c1cncc(C(F)(F)F)c1)c1cc(CNC(=O)C2CC2)ccc1Cl` [Example 11, 2-Chloro-5-{[(cvclopropylcarbonyl)amino]methyl}-N-{1-[5-(trifluoromethyl)pyridin-3-yl]-1H-indazol-4-yl}benzamide], the IC50 stood at 3.4 nM in the test with human A549 cells and 2.9 nM at human mPGES-1.
Regarding `O=C(Nc1cccc2c1cnn2-c1ccc(C(F)(F)F)nc1)c1cc(CNC(=O)C2CC2)ccc1Cl` [Example 12, 2-Chloro-5-{[(cyclopropylcarbonyl)amino]methyl}-N-{1-[6-(trifluoromethyl)pyridin-3-yl]-1H-indazol-4-yl}benzamide], the IC50 was 1.1 nM in the test on human A549 cells and 2.7 nM on human mPGES-1.
Regarding `COc1ccccc1-n1ncc2c(NC(=O)c3cc(CNC(=O)C4CC4)ccc3Cl)cccc21` [Example 13, 2-Chloro-5-{[(cyclopropylcarbonyl)amino]methyl}-N-[1-(2-methoxyphenyl)-1H-indazol-4-yl]benzamide], the IC50 was found to be 505 nM in the test with human A549 cells and 2 nM on human mPGES-1.
Take `CC(C)(C)c1ccc(-n2ncc3c(NC(=O)c4cc(CNC(=O)C5CC5)ccc4Cl)cccc32)cc1` [Example 14, N-[1-(4-tert-butylphenyl)-1H-indazol-4-yl]-2-chloro-5-{[(cyclopropylcarbonyl)amino]methyl}benzamide]: the IC50 was 0.4 nM in the test on human A549 cells and 1.1 nM at human mPGES-1.
In the same order, the values of `Cc1c(Cl)cccc1-n1ncc2c(NC(=O)c3cc(CNC(=O)C4CC4)ccc3Cl)cccc21` [Example 15, 2-Chloro-N-[1-(3-chloro-2-methylphenyl)-1H-indazol-4-yl]-5-{[(cyclopropylcarbonyl)amino]methyl}benzamide] are 7.8 nM and 5.6 nM.
With `O=C(Nc1cccc2c1cnn2-c1cccc(C(F)(F)F)c1)c1c(F)ccc(CNC(=O)C2CC2)c1F` [Example 16, 3-{[(Cyclopropylcarbonyl)amino]methyl}-2,6-difluoro-N-{1-[3-(trifluoromethyl)phenyl]-1H-indazol-4-yl}benzamide], the figures for the 50% inhibitory concentration (IC50) in the test on human A549 cells and on human mPGES-1 were 9.7 nM and 6.3 nM, respectively.
In the case of `O=C(Nc1cccc2c1cnn2-c1ccc(C(F)(F)F)cc1)c1cc(CNC(=O)C(F)(F)F)ccc1Cl` [Example 17, 2-Chloro-5-{[(trifluoroacetyl)amino]methyl}-N-{1-[4-(trifluoromethyl)phenyl]-1H-indazol-4-yl}benzamide], the 50% inhibitory concentration (IC50) is 1.6 nM with human A549 cells and 17 nM on human mPGES-1.
Take `CC(=O)NCc1ccc(Cl)c(C(=O)Nc2cccc3c2cnn3-c2ccc(C(F)(F)F)cc2)c1` [Example 18, 5-[(Acetylamino)methyl]-2-chloro-N-{1-[4-(trifluoromethyl)phenyl]-1H-indazol-4-yl}benzamide]: the results for the IC50 in the test with human A549 cells and on human mPGES-1 were 52.4 nM and 84.7 nM, respectively.
As for `CCC(=O)NCc1ccc(Cl)c(C(=O)Nc2cccc3c2cnn3-c2ccc(C(F)(F)F)cc2)c1` [Example 19, 2-Chloro-5-[(propanoylamino)methyl]-N-{1-[4-(trifluoromethyl)phenyl]-1H-indazol-4-yl}benzamide], the half-inhibitory concentration (IC50) with human A549 cells was 1 nM; on human mPGES-1, 6.1 nM.
Regarding `CC(C)(C)CC(=O)NCc1ccc(Cl)c(C(=O)Nc2cccc3c2cnn3-c2ccc(C(F)(F)F)cc2)c1` [Example 20, 2-Chloro-5-{[(3,3-dimethylbutanoyl)amino]methyl}-N-{1-[4-(trifluoromethyl)phenyl]-1H-indazol-4-yl}benzamide], the results for the 50% inhibitory concentration (IC50) in the test on human A549 cells and on human mPGES-1 were 2.8 nM and less than 1 nM, respectively.
In the same order, the values of `COCC(=O)NCc1ccc(Cl)c(C(=O)Nc2cccc3c2cnn3-c2ccc(C(F)(F)F)cc2)c1` [Example 21, 2-Chloro-5-{[(methoxyacetyl)amino]methyl}-N-{1-[4-(trifluoromethyl)phenyl]-1H-indazol-4-yl}benzamide] are 68 nM and 3.8 nM.
Take `CC#CC(=O)NCc1ccc(Cl)c(C(=O)Nc2cccc3c2cnn3-c2ccc(C(F)(F)F)cc2)c1` [Example 42, 5-[(2-Butynoylamino)methyl]-2-chloro-N-{1-[4-(trifluoromethyl)phenyl]-1H-indazol-4-yl}benzamide]: the IC50 on human mPGES-1 was 391 nM.

The values are drawn from patent US20250059172A1, “INDAZOLE COMPOUND AND PHARMACEUTICAL” (NIPPON SHINYAKU CO., LTD., priority 2021, published 2025).
